# Test results: patent US20220281848A1, “PYRAZOLE-SUBSTITUTED PYRROLIDINONES AS HERBICIDES” (FMC Corporation, priority 2019, published 2022)
# Legend:
# Format in all cases: in vivo
# [1] = system: ivy-leaved morning glory (Ipomoea hederacea, IPOHE); assay: Test A pre-emergence, ivy-leaved morning glory; conditions: after 13 d
# How it was run: (§1)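 Damage rated 0–100 (100 = total) 13 d after spraying. Application was one day post-sowing at 15.625, 62.5 or 250 g/ha, formulated in 50:50 acetone/water plus 0.5% Tween 20. Pots held in glasshouse at 24/16 °C day/night, 14 h light, 65% humidity, watered twice daily.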
# [2] = system: redroot pigweed (Amaranthus retroflexus, AMARE); assay: Test A pre-emergence, redroot pigweed; conditions: after 13 d
# How it was run: as §1
# [3] = system: redroot pigweed (Amaranthus retroflexus, AMARE); assay: Test A post-emergence, redroot pigweed; conditions: after 13 d
# How it was run: (§2)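 Visual damage rating (0 no damage to 100 total damage) was made 13 d after spraying. The spray was 15.625, 62.5 or 250 g/ha in 50:50 acetone/water with 0.5% Tween 20, applied to 8-day-old glasshouse plants kept at 24/16° C, 14 h light and 65% humidity.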
# [4] = system: velvetleaf (Abutilon theophrasti, ABUTH); assay: Test A post-emergence, velvetleaf; conditions: after 13 d
# How it was run: as §2
# plants = assay: Test D post-emergence, other plants of Tables D2 and D4; conditions: "Cereals" Postemergent, evaluated after 15 d
# Method: A formulation containing 50 g/L of the test chemical was prepared by dissolving the active ingredient in a mixture of organic solvents and emulsifier, details of which are provided in the table. This formulation was then mixed with a small, variable amount of acetone to aid dissolution, before addition of a 0.2% v/v aqueous solution of an adjuvant, as the aqueous diluent, to form an aqueous spray solution which contains a predetermined concentration of the active ingredient.
# This aqueous spray solution was then sprayed onto plants including maize and wheat that had been seed treated with a herbicide safener, after one day's cultivation (for pre-emergence) or after about 12 days' cultivation (for post-emergence). The plants were grown from seeds sown in standard soil, placed in a glasshouse under controlled conditions (at 24/18° C. or 20/16° C., day/night; 16 h light; 65% humidity). After spray application the plants were then grown in a glasshouse under the same conditions and watered twice daily. After 15 d for post-emergence and 20 DAA for pre-emergence the test was evaluated (100=total damage to plant; 0=no damage to plant).
structure (smiles),measurement,setting,value
CN1CC(c2cc(C(F)(F)F)n(C)n2)C(C(=O)Nc2cccc(F)c2C(F)(F)F)C1=O (racemic) [Compound 19],damage to plant (100=total damage; 0=no damage) IPOHE,[1]; Pre-Emergence at 15.625 g/ha,0
same,damage to plant (100=total damage; 0=no damage) IPOHE,[1]; Pre-Emergence at 62.5 g/ha,0
same,damage to plant (100=total damage; 0=no damage) IPOHE,[1]; Pre-Emergence at 250 g/ha,10
same,damage to plant (100=total damage; 0=no damage) AMARE,[2]; Pre-Emergence at 15.625 g/ha,0
same,damage to plant (100=total damage; 0=no damage) AMARE,[2]; Pre-Emergence at 62.5 g/ha,0
same,damage to plant (100=total damage; 0=no damage) AMARE,[2]; Pre-Emergence at 250 g/ha,0
same,damage to plant (100=total damage; 0=no damage) AMARE,[3]; Post-Emergence at 15.625 g/ha,0
same,damage to plant (100=total damage; 0=no damage) AMARE,[3]; Post-Emergence at 62.5 g/ha,0
same,damage to plant (100=total damage; 0=no damage) AMARE,[3]; Post-Emergence at 250 g/ha,30
same,damage to plant (100=total damage; 0=no damage) ABUTH,[4]; Post-Emergence at 15.625 g/ha,0
same,damage to plant (100=total damage; 0=no damage) ABUTH,[4]; Post-Emergence at 62.5 g/ha,0
same,damage to plant (100=total damage; 0=no damage) ABUTH,[4]; Post-Emergence at 250 g/ha,0
same,ALOMY damage rating (100=total damage to plant; 0=no damage to plant),plants; Rates 130,0
same,ALOMY damage rating (100=total damage to plant; 0=no damage to plant),plants; Rates 250,0
same,ALOMY damage rating (100=total damage to plant; 0=no damage to plant),plants; Rates 500,30
same,AVEFA damage rating (100=total damage to plant; 0=no damage to plant),plants; Rates 130,0
same,AVEFA damage rating (100=total damage to plant; 0=no damage to plant),plants; Rates 250,10
same,AVEFA damage rating (100=total damage to plant; 0=no damage to plant),plants; Rates 500,40
same,BEAVA damage rating (100=total damage to plant; 0=no damage to plant),plants; Rates 130,0
same,BEAVA damage rating (100=total damage to plant; 0=no damage to plant),plants; Rates 250,10
same,BEAVA damage rating (100=total damage to plant; 0=no damage to plant),plants; Rates 500,10
same,BROTE damage rating (100=total damage to plant; 0=no damage to plant),plants; Rates 130,0
same,BROTE damage rating (100=total damage to plant; 0=no damage to plant),plants; Rates 250,0
same,BROTE damage rating (100=total damage to plant; 0=no damage to plant),plants; Rates 500,0
same,BRSNN damage rating (100=total damage to plant; 0=no damage to plant),plants; Rates 130,0
same,BRSNN damage rating (100=total damage to plant; 0=no damage to plant),plants; Rates 250,20
same,BRSNN damage rating (100=total damage to plant; 0=no damage to plant),plants; Rates 500,10
same,CHEAL damage rating (100=total damage to plant; 0=no damage to plant),plants; Rates 130,0
same,CHEAL damage rating (100=total damage to plant; 0=no damage to plant),plants; Rates 250,0
same,CHEAL damage rating (100=total damage to plant; 0=no damage to plant),plants; Rates 500,40
same,GALAP damage rating (100=total damage to plant; 0=no damage to plant),plants; Rates 130,0
same,GALAP damage rating (100=total damage to plant; 0=no damage to plant),plants; Rates 250,0
same,GALAP damage rating (100=total damage to plant; 0=no damage to plant),plants; Rates 500,20
same,HORVW damage rating (100=total damage to plant; 0=no damage to plant),plants; Rates 130,0
same,HORVW damage rating (100=total damage to plant; 0=no damage to plant),plants; Rates 250,0
same,HORVW damage rating (100=total damage to plant; 0=no damage to plant),plants; Rates 500,40
same,KCHSC damage rating (100=total damage to plant; 0=no damage to plant),plants; Rates 130,0
same,KCHSC damage rating (100=total damage to plant; 0=no damage to plant),plants; Rates 250,0
same,KCHSC damage rating (100=total damage to plant; 0=no damage to plant),plants; Rates 500,0
same,LOLPE damage rating (100=total damage to plant; 0=no damage to plant),plants; Rates 130,0
same,LOLPE damage rating (100=total damage to plant; 0=no damage to plant),plants; Rates 250,0
same,LOLPE damage rating (100=total damage to plant; 0=no damage to plant),plants; Rates 500,10
same,POAAN damage rating (100=total damage to plant; 0=no damage to plant),plants; Rates 130,0
same,POAAN damage rating (100=total damage to plant; 0=no damage to plant),plants; Rates 250,30
same,POAAN damage rating (100=total damage to plant; 0=no damage to plant),plants; Rates 500,40
same,POLCO damage rating (100=total damage to plant; 0=no damage to plant),plants; Rates 130,0
same,POLCO damage rating (100=total damage to plant; 0=no damage to plant),plants; Rates 250,0
same,POLCO damage rating (100=total damage to plant; 0=no damage to plant),plants; Rates 500,0
same,SINAR damage rating (100=total damage to plant; 0=no damage to plant),"plants; SINAR, Rates 500",20
same,STEME damage rating (100=total damage to plant; 0=no damage to plant),"plants; STEME, Rates 130",0
